Patent US20140045806A1 (priority 2012, published 2014)
Values joined by “and” are separate entries in the source; they are usually repeats but may differ in a detail not shown here. Identical values can stand only once. Marks after values point to notes of the source that are not given here.

Tested on: postmenopausal women
Assay: ERC-210 phase III trial, Abbreviated Sexual Function (ASF) questionnaire
Format: in vivo
Excerpt: The example below is intended only to illustrate a particular embodiment of the present invention and is not meant to limit the scope of the invention in any manner. This study (ERC-210) is a phase III, prospective, multicentre, randomized, placebo-controlled, and double-blind trial. […] The DHEA ovules or suppositories (Vaginorm™) containing prasterone in a lipophilic base were manufactured by Recipharm, Karlskoga, Sweden. The study was divided into two phases, namely screening followed by a treatment period of 12 weeks. The protocol was approved by the Institutional Review Board of the Centre Hospitalier de I'Université Laval (Quebec City, Canada), McGill University (Montreal, Canada), Ethica (Montreal, Canada), Eastern Virginia Medical School (Norfolk, Va., USA) and the Western Institutional Review Board (Los Angeles, USA).
The inclusion and exclusion criteria were as described in (Labrie, Archer et al. 2009b). A written informed consent was obtained from all subjects prior to the performance of any study-related procedure. […] A partial gynecological examination was performed to evaluate the aspect of the mucosa and tolerance to the medication on day 1 and at all visits. The standard laboratory tests, namely hematology (including complete blood count and coagulation), blood chemistry and urinalysis were performed at screening, day 1 and at all visits. Summary tabulations were prepared displaying the number of observations, mean or geometric mean as appropriate, SD; SEM, 95% two-sided CI; median, minimum, and maximum for continuous variables; and the number and percentage per category for categorical data. Statistical analyses were performed at the two-sided significance level of 0.05 unless otherwise stated. […] The endpoints for analysis consisted of the following: desire/interest, arousal and orgasm were self-rated by the women at screening, at day 1, and at week 4, 8 and 12 using the ASF and MENQOL questionnaires. Baseline was defined as the value on day 1, obtained before first use of the study treatment, and change from baseline to week 12 was calculated for each participant for each domain endpoint. The analysis comparing each dose of DHEA to placebo was performed by analysis of covariance, with the baseline value used as the covariate. Missing values were replaced by the last observation made.
The other questionnaire used in our study to investigate sexual dysfunction has been the Abbreviated Sexual Function (ASF) questionnaire. […] When the groups with no MS pain are considered, improvements of −1.2% (p=0.9028), 31% (p=0.0337), 4.8% (p=0.3706) and 3.7% (p=0.5372) are observed compared to 12% (p=0.0134), 32% (p=0.1349), 16% (p=0.8546) and 29% (p=0.0341) in the corresponding MS pain groups.
When the orgasm domain of the ASF questionnaire is analyzed, a strong placebo effect is observed in response to the composite of the three following questions; a) over the last 4 weeks, how often did you have an orgasm when you took part in sexual activity (may be with or without partner); b) over the last 4 weeks, in general, how pleasurable were the orgasms the you had and; c) over the last 4 weeks, in general, how easy was it for you to reach orgasm?

[1] = 0.25% DHEA intravaginal daily 12 weeks, MS pain at sexual activity at baseline
[2] = 0.25% DHEA intravaginal daily 12 weeks, all subjects (ITT)
[3] = 0.25% DHEA intravaginal daily 12 weeks, no MS pain at sexual activity at baseline
[4] = 0.5% DHEA intravaginal daily 12 weeks, MS pain at sexual activity at baseline
[5] = 0.5% DHEA intravaginal daily 12 weeks, all subjects (ITT)
[6] = 0.5% DHEA intravaginal daily 12 weeks, no MS pain at sexual activity at baseline
[7] = 1.0% DHEA intravaginal daily 12 weeks, no MS pain at sexual activity at baseline
[8] = Pool 3 Doses DHEA intravaginal daily 12 weeks, MS pain at sexual activity at baseline
[9] = Pool 3 Doses DHEA intravaginal daily 12 weeks, MS pain at sexual activity at baseline, listed as prasterone
[10] = Pool 3 Doses DHEA intravaginal daily 12 weeks, all subjects (ITT)
[11] = Pool 3 Doses DHEA intravaginal daily 12 weeks, all subjects (ITT), listed as prasterone
[12] = Pool 3 Doses DHEA intravaginal daily 12 weeks, no MS pain at sexual activity at baseline
[13] = Pool 3 Doses DHEA intravaginal daily 12 weeks, no MS pain at sexual activity at baseline, listed as prasterone
[14] = average of the 3 DHEA doses, MS PAIN at baseline
[15] = average of the 3 DHEA doses, NO MS PAIN at baseline
[16] = average of the 3 DHEA doses, TOTAL (all women)

In the case of C[C@]12CC[C@H](O)CC1=CC[C@@H]1[C@@H]2CC[C@]2(C)C(=O)CC[C@@H]12 [DHEA, (3β)-3-Hydroxyandrost-5-en-17-one], the “ASF Arousal/lubrication score, average % change from baseline to Week 12 (increased from baseline)” value [1] was 189%, the “ASF Arousal/sensation score, average % change from baseline to Week 12 (increased from baseline)” value [1] was 97% and the “ASF Desire score, average % change from baseline to Week 12 (increased from baseline)” value [1] was 32%. The “ASF Orgasm score, average % change from baseline to Week 12 (increased from baseline)” value [1] was 66%, the “ASF SUMMARY SCORE, average % change from baseline to Week 12 (increased from baseline)” value [1] was 59% and the “ASF Arousal/sensation score, average % change from baseline to Week 12 (increased from baseline)” value [2] was 80%. For the same molecule, the “ASF Orgasm score, average % change from baseline to Week 12 (increased from baseline)” value [2] was 64%, the “ASF Arousal/lubrication score, average % change from baseline to Week 12 (increased from baseline)” value [3] was 95% and the “ASF Arousal/sensation score, average % change from baseline to Week 12 (increased from baseline)” value [3] was 43%. For the same molecule, the “ASF Orgasm score, average % change from baseline to Week 12 (increased from baseline)” value [3] was 59%, the “ASF SUMMARY SCORE, average % change from baseline to Week 12 (increased from baseline)” value [3] was 42% and the “ASF Arousal/sensation score, average % change from baseline to Week 12 (increased from baseline)” value [4] was 66%. The “ASF Desire score, average % change from baseline to Week 12 (increased from baseline)” value [4] was 16%, the “ASF Orgasm score, average % change from baseline to Week 12 (increased from baseline)” value [4] was 51% and the “ASF SUMMARY SCORE, average % change from baseline to Week 12 (increased from baseline)” value [4] was 42%. The “ASF Desire score, average % change from baseline to Week 12 (increased from baseline)” value [5] was 13%, the “ASF Orgasm score, average % change from baseline to Week 12 (increased from baseline)” value [5] was 53% and the “ASF SUMMARY SCORE, average % change from baseline to Week 12 (increased from baseline)” value [5] was 39%. For the same molecule, the “ASF Arousal/lubrication score, average % change from baseline to Week 12 (increased from baseline)” value [6] was 106%, the “ASF Arousal/sensation score, average % change from baseline to Week 12 (increased from baseline)” value [6] was 103% and the “ASF Desire score, average % change from baseline to Week 12 (increased from baseline)” value [6] was 4.8%. For the same molecule, the “ASF Orgasm score, average % change from baseline to Week 12 (increased from baseline)” value [6] was 56%, the “ASF SUMMARY SCORE, average % change from baseline to Week 12 (increased from baseline)” value [6] was 31% and the “ASF Orgasm score, average % change from baseline to Week 12 (increased from baseline)” value (1.0% DHEA intravaginal daily 12 weeks, MS pain at sexual activity at baseline) was 76%. For the same molecule, the “ASF Orgasm score, average % change from baseline to Week 12 (increased from baseline)” value (1.0% DHEA intravaginal daily 12 weeks, all subjects (ITT)) was 71%, the “ASF Arousal/lubrication score, average % change from baseline to Week 12 (increased from baseline)” value [7] was 63% and the “ASF Arousal/sensation score, average % change from baseline to Week 12 (increased from baseline)” value [7] was 30%. The “ASF Desire score, average % change from baseline to Week 12 (increased from baseline)” value [7] was 3.7%, the “ASF Orgasm score, average % change from baseline to Week 12 (increased from baseline)” value [7] was 50% and the “ASF SUMMARY SCORE, average % change from baseline to Week 12 (increased from baseline)” value [7] was 21%. For the same molecule, the “Sum of changes above placebo, ASF domains” value (MS group) was 209.4%, the “ASF Arousal/lubrication score, average % change from baseline to Week 12 (increased from baseline)” value [8] was 171%** and the “ASF Arousal/sensation score, average % change from baseline to Week 12 (increased from baseline)” value [8] was 76.2%*. For the same molecule, the “ASF Desire score, average % change from baseline to Week 12 (increased from baseline)” value [8] was 24.9%, the “ASF Orgasm score, average % change from baseline to Week 12 (increased from baseline)” value [8] was 64.3% and the “ASF Arousal/lubrication score, average % change from baseline to Week 12 (increased from baseline)” value [9] was 171%. For the same molecule, the “ASF Arousal/sensation score, average % change from baseline to Week 12 (increased from baseline)” value [9] was 76.2%, the “ASF Desire score, average % change from baseline to Week 12 (increased from baseline)” value [9] was 24.9% and the “ASF Orgasm score, average % change from baseline to Week 12 (increased from baseline)” value [9] was 64.3%. For the same molecule, the “ASF Arousal/lubrication score, average % change from baseline to Week 12 (increased from baseline)” value [10] was 149%**, the “ASF Arousal/sensation score, average % change from baseline to Week 12 (increased from baseline)” value [10] was 71.2%** and the “ASF Desire score, average % change from baseline to Week 12 (increased from baseline)” value [10] was 21.0%*. For the same molecule, the “ASF Orgasm score, average % change from baseline to Week 12 (increased from baseline)” value [10] was 62.4%, the “ASF SUMMARY SCORE, average % change from baseline to Week 12 (increased from baseline)” value [10] was 46.6%** and the “ASF Arousal/lubrication score, average % change from baseline to Week 12 (increased from baseline)” value [11] was 149%. For the same molecule, the “ASF Arousal/sensation score, average % change from baseline to Week 12 (increased from baseline)” value [11] was 71.2%, the “ASF Desire score, average % change from baseline to Week 12 (increased from baseline)” value [11] was 21.0% and the “ASF Orgasm score, average % change from baseline to Week 12 (increased from baseline)” value [11] was 62.4%. The “ASF SUMMARY SCORE, average % change from baseline to Week 12 (increased from baseline)” value [11] was 46.6%, the “ASF Arousal/lubrication score, average % change from baseline to Week 12 (increased from baseline)” value [12] was 84.6% and the “ASF Arousal/sensation score, average % change from baseline to Week 12 (increased from baseline)” value [12] was 52.7%. The “ASF Desire score, average % change from baseline to Week 12 (increased from baseline)” value [12] was 14.0%, the “ASF Orgasm score, average % change from baseline to Week 12 (increased from baseline)” value [12] was 55.3% and the “ASF SUMMARY SCORE, average % change from baseline to Week 12 (increased from baseline)” value [12] was 31.1%. For the same molecule, the “ASF Arousal/lubrication score, average % change from baseline to Week 12 (increased from baseline)” value [13] was 84.6%, the “ASF Arousal/sensation score, average % change from baseline to Week 12 (increased from baseline)” value [13] was 52.7% and the “ASF Desire score, average % change from baseline to Week 12 (increased from baseline)” value [13] was 14.0%. The “ASF Orgasm score, average % change from baseline to Week 12 (increased from baseline)” value [13] was 55.3%, the “ASF Arousal/lubrication, average % change from baseline to Week 12 in severity score over placebo” value [14] was 118%** and the “ASF Arousal/sensation, average % change from baseline to Week 12 in severity score over placebo” value (“ASF Arousal/sensation, average % change” for short) [14] was 64.2%*. For the same molecule, the “ASF Desire, average % change from baseline to Week 12 in severity score over placebo” value (“ASF Desire, average % change” below) [14] was 12.9%, the “ASF Orgasm, average % change from baseline to Week 12 in severity score over placebo” value (“ASF Orgasm, average % change” below) [14] was 14.3% and the “ASF Arousal/lubrication, average % change from baseline to Week 12 in severity score over placebo” value [15] was 67.6%. The “ASF Arousal/sensation, average % change” value [15] was 58.0%, the “ASF Desire, average % change” value [15] was 15.2% and the “ASF Orgasm, average % change” value [15] was 59.4%. For the same molecule, the “ASF Summary score, average % change from baseline to Week 12 in severity score over placebo” value [15] was 32.1%, the “ASF Arousal/lubrication, average % change from baseline to Week 12 in severity score over placebo” value [16] was 104%** and the “ASF Arousal/sensation, average % change” value [16] was 62.6%**. The “ASF Desire, average % change” value [16] was 12.3%*, the “ASF Orgasm, average % change” value [16] was 26.4% and the “Sum of changes above placebo, ASF domains” value (non MS group) was 200.2% and 202.2%. The “Specificity of the effect of DHEA, ASF” value (non MS pain group versus MS pain group) was 30 fold.
